Results published in US20070060558A1 (PALUMED S.A., priority 2004, published 2007).
Values after ≈ are worked out from the molar mass of the structure shown. Like-named read-outs stand apart in the source and are kept apart here.

Assays:
[1] = test system: S. pneumoniae PSSP CQI 201; assay: Antibacterial activity (MIC); assay type: cell-based, Streptococcus pneumoniae; details: for MIC: Streptococcus pneumoniae, S. pneumoniae PSSP CQI 201, read-out: MIC
S. pyogenes CIP 56.41T = assay: Antibacterial activity (MIC/MBC); assay type: cell-based, Streptococcus pyogenes; details: Streptococcus pyogenes, CIP56, S. pyogenes CIP 56.41T; for MIC: read-out: MIC
[2] = test system: Staphylococcus aureus MSSA CIP 4.83; assay: Antibacterial activity (MIC/MBC); assay type: cell-based; details: for MBC: read-out: MBC
S. pneumoniae mefE = assay: Antibacterial activity (MIC); assay type: cell-based; details: Streptococcus pneumoniae; S. pneumoniae mefE (macrolide-resistant by efflux)
[3] = test system: S. aureus MRSA clinical isolate; assay: Antibacterial activity (MIC); assay type: cell-based, Staphylococcus aureus; details: Staphylococcus aureus; S. aureus MRSA clinical isolate; read-out: MIC
[4] = test system: S. pneumoniae PRSP clinical isolate; assay: Antibacterial activity (MIC/MBC); assay type: cell-based, Streptococcus pneumoniae; details: Streptococcus pneumoniae; for MIC: PRSP
M. catarrhalis CIP73.21T = assay: Antibacterial activity (MIC/MBC); assay type: cell-based; details: Moraxella catarrhalis
[5] = test system: S. pneumoniae PSSP CIP 6.92; assay: Antibacterial activity (MIC/MBC); assay type: cell-based; details: Streptococcus pneumoniae, CIP6
[6] = test system: S. pneumoniae PRSP CIP 104471; assay: Antibacterial activity (MIC/MBC); assay type: cell-based, Streptococcus pneumoniae; details: Streptococcus pneumoniae; for MIC: read-out: MIC
[7] = test system: E. faecalis VRE CIP 104676; assay: Antibacterial activity (MIC/MBC); assay type: cell-based, Enterococcus faecalis; details: Enterococcus faecalis, E. faecalis VRE CIP 104676
H. influenzae CIP 102514 = assay: Antibacterial activity (MIC/MBC); assay type: cell-based, Haemophilus influenzae; details: Haemophilus influenzae, CIP102514
[8] = Stability in solution at pH 1 (HPLC purity over time); assay type: physicochemical; details: for Purity of the hybrid molecules (as a percentage) as a function of time (hours): pH 1, 37° C.
Procedure: The stability of the aminoquinoline-cephalosporin_hybrid molecules given as examples was determined in solution at 37° C., at physiological pH (pH 7, phosphate buffer/acetonitrile, 75/25 v/v) and at acidic pH (pH 1, 0.1 M HCl/ethanol, 70/30 v/v) by high pressure liquid chromatography coupled to a UV-visible detector (Beckman Coulter ODS C18 column, 5 μm, 4.6×250 mm; eluents: A: 0.1% TFA, B: CH3CN/H2O 90/10 0.1% TFA, gradient: from 10% to 100% of B in 30 minutes, and then 100% of B for 10 minutes, flow rate 1 mL/minutes, λ=254 nm, volume injected: 10 μL).

[9] = test system: Staphylococcus aureus MSSA 53.154; assay: Murine experimental septicaemia, in vivo efficacy; set-up: species or system mice; details: sc, mice, subcutaneously at 1 and 6 h post infection, survival on day 9, hybrid molecules formulated in water as their sodium salt, read-out: ED50
Procedure: Experimental septicaemia was induced in mice as follows. Briefly, male Swiss OF1 mice (IFFA CREDO-Charles River) weighing 18 to 20 grams were infected intraperitoneally with 0.5 mL of a bacterial suspension containing 8.5×10^7 cfu of Staphylococcus aureus MSSA 53.154 (Institut Pasteur). The hybrid molecules were administered subcutaneously at 1 and 6 h post infection. Control and treatment groups at each dose were composed of seven mice. All the infected but untreated control mice died within 9 days. The 50% effective dose (ED50) values were calculated by a computerized program (GraphPad) from the survival rates on day 9 after infection.

[10] = test system: two strains of penicillin-resistant Streptococcus pneumoniae PRSP (CIP 104471 and a clinical isolate); assay: Antibacterial activity (MIC/MBC), summary in text; assay type: cell-based; details: S. pneumoniae PRSP (CIP 104471 and a clinical isolate)
[11] = test system: Human lung fibroblast cells (ATCC CCL-171); assay: Cytotoxicity (MTT) assay; details: human, 18 hr
Procedure: Cellular toxicity was measured by a colorimetric assay that makes use of the tetrazolium salt, MTT. Human lung fibroblast cells (ATCC CCL-171) were plated in 96-well plates at 10^4 cells per well and incubated under 5% CO2 at 37° C. for 24 hr to allow adherence of cells to the plate. Test compounds were prepared as a stock solution at 1 mg/mL in 1% DMSO/water and diluted with water for the serial dilutions (500-7.8 μg/mL). Cells underwent a 18 hr treatment under 5% CO2 at 37° C. with experimental drugs. Corresponding controls received either no drug treatment or treatment with SDS (sodium dodecyl sulfate). The optical density of each sample was read on a microplate spectrophotometer reader at 600 nm and cell survival was expressed as a fraction of that of untreated controls. A drug is said cytotoxic when this fraction is ≦−30%

Oral toxicity in mice = assay type: in vivo; details: counted on day 30
Procedure: The test compound: PA 1046 (example 5) was emulsified in a mixture of Tween 80/methylcellulose in water (0.5% of Tween 80, 0.6% of methylcellulose and 98.9% of water) at different concentrations. The emulsion was administered orally to 6-week-old female Swiss CD1 mice (Janvier) on day 0 and on day 2. The number of survival mice was counted on day 30.

B. fragilis API 7716 = assay: Antibacterial activity (MIC); assay type: cell-based; details: Bacteroides fragilis, API7716
[12] = Staphylococcus aureus, S. aureus MSSA CIP 4.83, read-out: MIC
[13] = S. aureus CIP 4.83, without serum (Table VI)
[14] = Staphylococcus aureus, S. aureus CIP 4.83, +50% human serum, read-out: MIC in the presence of human serum
[15] = Staphylococcus aureus, S. aureus MSSA CIP 4.83
[16] = +50% human serum, read-out: MIC in the presence of human serum
[17] = without serum (Table VI), read-out: MIC

CC[C@H]1OC(=O)[C@H](C)[C@@H](O[C@H]2C[C@@](C)(OC)[C@@H](O)[C@H](C)O2)[C@H](C)[C@@H](O[C@@H]2O[C@H](C)C[C@H](N(C)C)[C@H]2O)[C@](C)(O)C[C@@H](C)C(=O)[C@H](C)[C@@H](O)[C@]1(C)O [Erythromycin, reference compound]
MIC [1]: 0.039 µg/mL (≈ 0.0531 µM)
MIC (S. pyogenes CIP 56.41T): 0.039 µg/mL (≈ 0.0531 µM)
MIC [2, 12]: 0.156 µg/mL (≈ 0.213 µM)
MIC (S. pneumoniae mefE): 5 µg/mL (≈ 6.81 µM)
MIC [3]: 0.156 µg/mL (≈ 0.213 µM)
MIC ([4]; read-out: MIC): > 5 µg/mL

CO/N=C(\C(=O)N[C@@H]1C(=O)N2C(C(=O)O)=C(CSc3nc(=O)c(=O)[nH]n3C)CS[C@H]12)c1csc(N)n1 [Ceftriaxone, reference compound]
MBC (M. catarrhalis CIP73.21T): 0.0015 µg/mL (≈ 0.0027 µM)
MIC (M. catarrhalis CIP73.21T): < 0.01 µg/mL
MBC (S. pyogenes CIP 56.41T): 0.006 µg/mL (≈ 0.0108 µM)
MIC (S. pyogenes CIP 56.41T): 0.006 µg/mL (≈ 0.0108 µM)
MBC [5]: 0.006 µg/mL (≈ 0.0108 µM)
MIC [5]: 0.006 µg/mL (≈ 0.0108 µM)
MBC [6]: 0.39 µg/mL (≈ 0.703 µM)
MIC [6]: 0.05 µg/mL (≈ 0.0902 µM)
MBC [7]: 50 µg/mL (≈ 90.2 µM)
MIC ([7]; read-out: MIC): 1.56 µg/mL (≈ 2.81 µM)
MBC (H. influenzae CIP 102514; H. influenzae CIP 102514, read-out: MBC): 1.56 µg/mL (≈ 2.81 µM)
MIC (H. influenzae CIP 102514; H. influenzae CIP 102514, read-out: MIC): < 0.001 µg/mL
MIC [2, 13]: 0.20 µg/mL (≈ 0.361 µM)
MIC [2, 14]: 25 µg/mL
MBC [2, 15]: > 50 µg/mL
MIC [2, 12]: 0.2 µg/mL (≈ 0.361 µM)
half-life ([8]; 0.1 M HCl/ethanol solution, pH 1 in solution at 37° C.): < 2 h
Purity of the hybrid molecules (as a percentage) as a function of time (hours) ([8]; time 0 h): 100%
Purity of the hybrid molecules (as a percentage) as a function of time (hours) ([8]; time 1 h): 67%
Purity of the hybrid molecules (as a percentage) as a function of time (hours) ([8]; time 2 h): 46%
Purity of the hybrid molecules (as a percentage) as a function of time (hours) ([8]; time 4 h): 21%
Purity of the hybrid molecules (as a percentage) as a function of time (hours) ([8]; time 6 h): 4%
time until practically totally degraded ([8]; pH 1 in solution at 37° C.): less than 6 hr
ED50 [9]: 0.09 mg/kg
MIC [10]: 0.05 µg/mL (≈ 0.0902 µM)
MBC [4]: 0.78 µg/mL (≈ 1.41 µM)
MIC [4, 16]: 12.5 µg/mL
MIC ([4]; read-out: MIC): 0.39 µg/mL (≈ 0.703 µM)
MIC [4, 17]: 0.78 µg/mL (≈ 1.41 µM)

CC[C@@H]1OC(=O)[C@H](C)[C@H](OC2CC(C)(OC)C(O)C(C)O2)[C@@H](C)[C@@H](OC2OC(C)CC(N(C)C)C2O)[C@](C)(O)C[C@@H](C)/C(=N\OCCCNc2ccnc3cc(Cl)ccc23)[C@@H](C)[C@H](O)[C@]1(C)O (stereo partly shown) [PA 1169, 10{O-[3-(7-Chloroquinolin-4-ylamino)-propyl]-oxime}-erythromycin]
gain in activity (factor) ([1]; Streptococcus pneumoniae PSSP, versus macrolide residue): 8
MIC [1]: 0.005 µg/mL (≈ 0.00517 µM)
MIC (S. pyogenes CIP 56.41T): 0.078 µg/mL (≈ 0.0806 µM)
MIC [2, 12]: 0.156 µg/mL (≈ 0.161 µM)
MIC (S. pneumoniae mefE): 1.25 µg/mL (≈ 1.29 µM)
MIC [3]: 0.31 µg/mL (≈ 0.32 µM)
MIC ([4]; read-out: MIC): > 5 µg/mL

CC(=O)OCC1=C(C(=O)O)N2C(=O)[C@@H](NC(=O)CNc3ccnc4cc(Cl)ccc34)[C@H]2SC1 [PA 1046, (6R,7R)-3-Acetoxymethyl-7-[2-(7-chloroquinolin-4-ylamino)-acetylamino]-8-oxo-5-thia-1-aza-bicyclo[4.2.0]oct-2-ene-2-carboxylic acid]
MBC (M. catarrhalis CIP73.21T): 0.78 µg/mL (≈ 1.59 µM)
MIC (M. catarrhalis CIP73.21T): 0.78 µg/mL (≈ 1.59 µM)
MBC (S. pyogenes CIP 56.41T): 0.003 µg/mL (≈ 0.00611 µM)
MIC (S. pyogenes CIP 56.41T): 0.003 µg/mL (≈ 0.00611 µM)
MBC [5]: 0.012 µg/mL (≈ 0.0244 µM)
MIC [5]: 0.012 µg/mL (≈ 0.0244 µM)
MBC [6]: 0.025 µg/mL (≈ 0.0509 µM)
MIC [6]: 0.006 µg/mL (≈ 0.0122 µM)
MBC [7]: 50 µg/mL (≈ 102 µM)
% of survival cells compared to the untreated controls ([11]; 7.8 μg/mL): −5.6%
% of survival cells compared to the untreated controls ([11]; 15.6 μg/mL): −8.3%
% of survival cells compared to the untreated controls ([11]; 31.2 μg/mL): −5.6%
% of survival cells compared to the untreated controls ([11]; 62.5 μg/mL): −9.0%
% of survival cells compared to the untreated controls ([11]; 125 μg/mL): −14.1%
% of survival cells compared to the untreated controls ([11]; 250 μg/mL): −17.8%
% of survival cells compared to the untreated controls ([11]; 500 μg/mL): −18.1%
MBC (H. influenzae CIP 102514): 25 µg/mL (≈ 50.9 µM)
MIC [2, 13]: 0.2 µg/mL (≈ 0.407 µM)
MIC [2, 14]: 0.78 µg/mL
MBC [2, 15]: > 50 µg/mL
MIC [2, 12]: 0.2 µg/mL (≈ 0.407 µM)
ED50 [9]: 0.04 mg/kg
MBC [4]: 0.1 µg/mL (≈ 0.204 µM)
MIC [4, 16]: 1.56 µg/mL
MIC ([4]; read-out: MIC): 0.05 µg/mL (≈ 0.102 µM)
MIC [4, 17]: 0.2 µg/mL (≈ 0.407 µM)
Survival (%) (Oral toxicity in mice; 100 mg/kg orally on day 0 and day 2, mice): 5/5 (100%)
Survival (%) (Oral toxicity in mice; 200 mg/kg orally on day 0 and day 2, mice): 5/5 (100%)

Cc1ncc([N+](=O)[O-])n1CCO [Metronidazole, reference compound]
MIC (B. fragilis API 7716): 0.2 µg/mL (≈ 1.17 µM)

Cc1ncc([N+](=O)[O-])n1CCNc1ccnc2cc(C(F)(F)F)ccc12 [PA 1130, [2-(2-Methyl-5-nitroimidazol-1-yl)-ethyl]-(7-trifluoromethylquinolinyl-4-yl)-amine]
MIC (B. fragilis API 7716): 3.12 µg/mL (≈ 8.54 µM)

Cc1ncc([N+](=O)[O-])n1CCNc1ccnc2cc(Cl)ccc12 [PA 1129, (7-Chloroquinolin-4-yl)-[2-(2-methyl-5-nitroimidazol-1-yl)-ethyl]-amine]
MIC (B. fragilis API 7716): 0.78 µg/mL (≈ 2.35 µM)
